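These data come from cells grown in 96-well plates and exposed to compound for 48 hours at five concentrations. TGI is the concentration that stops growth completely.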
How the values were obtained:
Assay in all cases: NCI-60 cell line screen, 48 h
KM20L2 colon = tested on: KM20L2 colon
U251 CNS = tested on: U251 CNS
UO-31 renal = tested on: UO-31 renal
HT29 colon = tested on: HT29 colon
M19-MEL melanoma = tested on: M19-MEL melanoma
UACC-62 melanoma = tested on: UACC-62 melanoma
SR leukemia = tested on: SR leukemia
SW-620 colon = tested on: SW-620 colon
SK-MEL-28 melanoma = tested on: SK-MEL-28 melanoma
SK-MEL-2 melanoma = tested on: SK-MEL-2 melanoma
NCI-H522 lung = tested on: NCI-H522 lung
OVCAR-4 ovarian = tested on: OVCAR-4 ovarian
SNB-75 CNS = tested on: SNB-75 CNS
OVCAR-8 ovarian = tested on: OVCAR-8 ovarian
786-0 renal = tested on: 786-0 renal
MOLT-4 leukemia = tested on: MOLT-4 leukemia
SF-295 CNS = tested on: SF-295 CNS
RPMI-8226 leukemia = tested on: RPMI-8226 leukemia
UACC-257 melanoma = tested on: UACC-257 melanoma
OVCAR-5 ovarian = tested on: OVCAR-5 ovarian
SF-539 CNS = tested on: SF-539 CNS
TK-10 renal = tested on: TK-10 renal
HOP-18 NSCLC = tested on: HOP-18 NSCLC
CCRF-CEM leukemia = tested on: CCRF-CEM leukemia
SK-OV-3 ovarian = tested on: SK-OV-3 ovarian
LXFL 529 NSCLC = tested on: LXFL 529 NSCLC
NCI-H226 lung = tested on: NCI-H226 lung
IGROV1 ovarian = tested on: IGROV1 ovarian
HCT-15 colon = tested on: HCT-15 colon
K-562 leukemia = tested on: K-562 leukemia
KM12 colon = tested on: KM12 colon
SNB-78 CNS = tested on: SNB-78 CNS
HOP-92 NSCLC = tested on: HOP-92 NSCLC
M14 melanoma = tested on: M14 melanoma
A498 renal = tested on: A498 renal
HCT-116 colon = tested on: HCT-116 colon
DLD-1 colon = tested on: DLD-1 colon
ACHN renal = tested on: ACHN renal
SNB-19 CNS = tested on: SNB-19 CNS
NCI-H460 lung = tested on: NCI-H460 lung
MALME-3M melanoma = tested on: MALME-3M melanoma
SF-268 CNS = tested on: SF-268 CNS
HOP-62 NSCLC = tested on: HOP-62 NSCLC
A549 NSCLC = tested on: A549 NSCLC
HL-60(TB) leukemia = tested on: HL-60(TB) leukemia
SN12C renal = tested on: SN12C renal
SK-MEL-5 melanoma = tested on: SK-MEL-5 melanoma
CAKI-1 renal = tested on: CAKI-1 renal
NCI-H23 lung = tested on: NCI-H23 lung
COLO 205 colon = tested on: COLO 205 colon
OVCAR-3 ovarian = tested on: OVCAR-3 ovarian
LOX IMVI melanoma = tested on: LOX IMVI melanoma
DMS 114 small cell lung = tested on: DMS 114 small cell lung
RXF 393 renal = tested on: RXF 393 renal
HCC-2998 colon = tested on: HCC-2998 colon
EKVX NSCLC = tested on: EKVX NSCLC
DMS 273 small cell lung = tested on: DMS 273 small cell lung

Measured: TGI

COc1ccc(NC(=O)CC(=O)NN2C(=O)/C(=C/c3ccc(N(CCC#N)CCC#N)cc3C)N=C2/C=C\c2ccccc2)cc1
not listed: DMS 114 small cell lung | RXF 393 renal | HCC-2998 colon | EKVX NSCLC | DMS 273 small cell lung
> 100 µM: all other assays above

O=C1CC2C=CC1C2CO (stereo unspecified)
not listed: SK-MEL-2 melanoma | K-562 leukemia | NCI-H23 lung
> 100 µM: all other assays above

From PubChem BioAssay (NCI)
